# According to article PMC3989846 (Malaria Journal, 2014):
# Read-outs that look alike come from different tables or passages of the source.
# Experiment: Plasma pharmacokinetics after single intravenous or intragastric dose
# Assay type: in vivo, male ICR mice
# Conditions: for Cmax / bioavailability / AUC(0-t) / MRT / AUC / Tmax / half-life / clearance / Vd: ICR, mouse; for bioavailability: intragastric 20 mg/kg vs intravenous 5 mg/kg, read-out: Absolute bioavailability; for AUC: read-out: AUCinfininty; for half-life: read-out: t1/2 elimination (converted); for Vd: read-out: Vz
# Experimental: PK studies were performed using both intravenous (IV) and intragastric (IG) administration. For each time point to be acquired, three male ICR mice per time-point, aged seven weeks, were dosed at either PQ or TQ at 5 mg/kg (IV) or 20 mg/kg (IG). Drug vehicle for IV studies was 0.9% saline solution, and the formulated drugs were administered in a volume of 100 μL/20 g of body weight. For IG dosing, the drug vehicle was 0.5% HECT, administered at 100 μL/20 g. At each time point, plasma and liver samples were collected. Whole blood was collected by cardiac puncture. […] Following the separation of appropriate aliquots, plasma was obtained from the whole blood via centrifugation. All liquid and tissue samples were immediately preserved on dry ice and lately stored at -80°C until analytical work was performed.
# Sample was prepared by adding twice the normal volume of acetonitrile containing indomethacin internal standard (IS). The samples were mixed for 1 minute, centrifugation for 5 minutes, and the supernatant was transferred to an autosampler injection vial prior to separation by LC/MS/MS. Standard curve and quality control (QC) samples were generated by spiking interference free mouse plasma samples with known amounts of PQ, TQ and IS. Standard curve, QC, and assay samples were prepared and then 40 μL aliquots were injected into the LC/MS/MS system for chromatographic separation and subsequent mass spectrometric detection.
# Chromatography was performed using a Surveyor pump (Thermo Scientific, Waltham, MA) with Waters XTerra MS C18 50 mm × 2.1 mm id, 3.5 μm particle size columns (Waters Corp., Milford, MA). Mobile phase consisted of a water/0.1% formic acid (Solvent A)/acetonitrile/0.1% formic acid (Solvent B) gradient. […] Flow rate was 300 μL/min. Samples were injected using an HTC PAL autosampler (LEAP Technologies, Carrboro, NC). Tandem mass spectrometry was performed using a TSQ Quantum AM (Thermo Scientific).
# Drug concentrations were generated for each sample taken from animals dosed with both test drugs. A measured plasma and liver drug concentration vs. time curve was produced, in graphic and tabular form, for each subject on both linear/linear and log/linear scales, for the parent compound. Mean plasma drug concentration vs. time curves were also prepared separately. For the determination of initial approach to PK parameters of TQ and PQ in plasma and liver tissues after systemic application, a non-compartmental analysis was performed using Phoenix (version 6.1; Pharsight Corp., Mountain View, CA). Maximum plasma and liver concentration (Cmax), and time to maximum concentration (tmax) of TQ and PQ were obtained from the plasma and liver drug concentration-time curves. The elimination half-life (t1/2) was calculated from In2/kel, which is the elimination rate constant calculated from the log concentration-time plot. The area under the curve (AUC) and the area under the first moment curve (AUMC) were determined by the linear trapezoidal rule with extrapolation to infinity based on the concentration of the last time point divided by the terminal rate constant. Mean clearance rate (CL) was determined by dividing the dose by the AUCinf for intravenous injection for plasma samples. Absolute bioavailability was calculated by taking the dose-corrected area under the curve (AUC) from non-intravenous dosing divided by the AUC derived from intravenous dosing. Mean residence time (MRT) was determined by dividing the area under the first moment curve (AUMC) by AUC. The volume of the central compartment (Vz) and volume of the tissue compartment (Vz/F) were calculated as the product of CL and MRT.
# [1] = male, po, intragastric 20 mg/kg, plasma
# [2] = male, intravenous 5 mg/kg, plasma
# [3] = male, in vivo, po, intragastric 20 mg/kg, plasma
# [4] = male, in vivo, intravenous 5 mg/kg, plasma
smiles,measurement,setting,value
"COc1cc(C)c2c(Oc3cccc(C(F)(F)F)c3)c(OC)cc(NC(C)CCCN)c2n1 (centres unmarked) [Tafenoquine, tafenoquine]",Cmax,"intravenous 5 mg/kg, plasma, male mice",660 ± 130 ng/mL
same,Cl,"intragastric 20 mg/kg, plasma",2.5 ± 0.5 mL/min/kg
same,Vz,"intragastric 20 mg/kg, plasma",10.60 ± 1.22 L/kg
same,bioavailability,"male, oral, plasma",101 ± 37.5%
same,AUC(0-t),[1],138000 ± 24400 ng·h/mL
same,Cmax,[1],2040 ± 590 ng/mL
same,MRT,[1],62.1 ± 2.3 h
same,AUC,[1],139000 ± 24900 ng·h/mL
same,Tmax,"male, po, intragastric 20 mg/kg, plasma, read-out: Tmax",11.3 ± 5.37 h
same,half-life,[1],50.9 ± 4.23 h
same,AUC(0-t),[2],29600 ± 6740 ng·h/mL
same,MRT,[2],55.9 ± 3.86 h
same,clearance,[2],2.83 mL/min/kg
same,AUC,[2],30100 ± 6650 ng·h/mL
same,Tmax,"male, intravenous 5 mg/kg, plasma, read-out: Tmax",1.36 ± 1.11 h
same,Vd,[2],16.8 ± 6.44 L/kg
same,half-life,[2],66.3 ± 10.3 h
same,"absolute bioavailability of oral TQ, fold greater than oral PQ",oral,3.5 fold
same,clearance as % of the hepatic blood flow,oral CL 0.15 L/hours/kg,3%
same,"AUCinf of oral TQ, fold higher than oral PQ","oral, plasma",94 fold
same,"Cmax of oral TQ, fold higher than oral PQ","oral, plasma",approximately 4 fold
same,"elimination clearance of oral TQ, fold slower than oral PQ","oral, plasma",370 fold
same,"absorption rate of oral TQ, fold slower than PQ","oral, plasma, mice",22.7 fold
same,duration of quantifiable concentrations,single 20 mg/kg dose,more than two weeks
"COc1cc(NC(C)CCCN)c2ncccc2c1 (centres unmarked) [Primaquine, primaquine]",Cmax,"in vivo, intravenous 5 mg/kg, plasma, male mice",1210 ± 210 ng/mL
same,Cl,"intragastric 20 mg/kg, plasma",965.7 ± 342 mL/min/kg
same,Vz,"intragastric 20 mg/kg, plasma",154.66 ± 61.83 L/kg
same,AUCinfininty,"intravenous 5 mg/kg, plasma, 5 mg/kg",1260 ± 140 ng·h/mL
same,AUC,"male, in vivo, iv, 5 mg/kg, intravenous 5 mg/kg, plasma",1200 ng·h/mL
same,AUC,"male, in vivo, po, 20 mg/kg, intragastric 20 mg/kg, plasma",1310 ± 410 ng·h/mL
same,AUC(0-t),[3],1260 ± 400 ng·h/mL
same,Cmax,[3],530 ± 70 ng/mL
same,MRT,[3],2.28 ± 0.1 h
same,Tmax,"male, in vivo, po, intragastric 20 mg/kg, plasma, read-out: Tmax",0.5 h
same,Tmax,"male, in vivo, absorbed from the gastrointestinal tract, mice, read-out: time to peak plasma levels",≤ 0.0833 h
same,bioavailability,"male, in vivo, plasma",28.3 ± 6.93%
same,AUC(0-t),[4],1200 ± 130 ng·h/mL
same,MRT,[4],0.68 ± 0.02 h
same,clearance,[4],69.8 mL/min/kg
same,Tmax,"male, in vivo, intravenous 5 mg/kg, plasma, read-out: Tmax",0.08 h
same,Vd,[4],3.85 ± 0.71 L/kg
